Assays:
CDK13 = CDK13 (Homo sapiens, UniProt Q14004); experiment: Western blot degradation of CDK13 (Example 2); format: cell-based; set-up: degradation of CDK12/13 protein in leukemia cells KASUMI-1, MV4-11, and Jurkat; endogenous in cells; details: DC50 classes, cell line not given; for DC50: read-out: CDK13 degradation Activity
Protocol: (§1) Western blot was used to determine the degradation of CDK12/13 protein in leukemia cells KASUMI-1, MV4-11, and Jurkat. The two compounds with the best degradation effects were further validated for their ability to degrade CDK12/13 protein in breast cancer cells MDA-MB-231 using a concentration gradient.
(§2) • Cell lines: KASUMI-1, MV4-11, Jurkat, or MDA-MB-231 • Culture medium: DMEM/RIPM-1640+10% Hyclone serum • Compound dissolution method: Compounds were dissolved in DMSO to prepare a 50 mM stock solution, and then diluted to the corresponding concentrations.
(§3) (1) In vitro cell culture: The selected cells were cultured in a 37 °C constant temperature incubator with 5% CO2. Once the cell density reached 70-90%, they were passaged for subsequent experiments.
(§4) (2) Cell seeding: Cells were digested, and the cell suspension was transferred to a 1.5 mL Eppendorf tube. After centrifugation at 1,000 rpm for 5 min, the cells were resuspended in 2 mL of culture medium and counted. The cell suspension was seeded in a 24-well plate at a density of 200,000 cells per well and allowed to adhere for 8-12 h.
(§5) (3) Compound treatment: The 50 mM compound stock solution was diluted with cell culture medium to a final concentration of 0.01 μM-3 μM. Cells were incubated in a 37 °C incubator with 5% CO2 for 3 h-48 h. The DMSO group served as the negative control.
(§6) At the end of the treatment time, the cells were collected and washed once with PBS. An appropriate volume of 4% SDS was added to lyse the cells, and the mixture was sonicated until no longer viscous. After centrifugation at 12,000 rpm at room temperature for 30 min, the supernatant was transferred to a new EP tube for protein quantification.
(§7) The exposure results were quantitatively analyzed using Image J software. First, the grayscale values of the bands were calculated using Image J. Then, the grayscale value of the target protein was divided by the grayscale value of the internal reference protein for normalization. The calculation formula is: […]
(§8) Where A is the grayscale value and D is the degradation rate.
(§9) In the figures, CDK12 and CDK13 are the target proteins under study, and β-Actin and GAPDH are the internal reference proteins. Internal reference proteins are used to indicate the total protein amount in each experimental group for quantitative analysis.

CDK12 = CDK12 (Homo sapiens, UniProt Q9NYV4); experiment: Western blot degradation of CDK12 (Example 2); format: cell-based; set-up: degradation of CDK12/13 protein in leukemia cells KASUMI-1, MV4-11, and Jurkat; endogenous in cells; details: DC50 classes, cell line not given; for DC50: read-out: CDK12 degradation Activity
CDK12, sequence (Q9NYV4 whole entry): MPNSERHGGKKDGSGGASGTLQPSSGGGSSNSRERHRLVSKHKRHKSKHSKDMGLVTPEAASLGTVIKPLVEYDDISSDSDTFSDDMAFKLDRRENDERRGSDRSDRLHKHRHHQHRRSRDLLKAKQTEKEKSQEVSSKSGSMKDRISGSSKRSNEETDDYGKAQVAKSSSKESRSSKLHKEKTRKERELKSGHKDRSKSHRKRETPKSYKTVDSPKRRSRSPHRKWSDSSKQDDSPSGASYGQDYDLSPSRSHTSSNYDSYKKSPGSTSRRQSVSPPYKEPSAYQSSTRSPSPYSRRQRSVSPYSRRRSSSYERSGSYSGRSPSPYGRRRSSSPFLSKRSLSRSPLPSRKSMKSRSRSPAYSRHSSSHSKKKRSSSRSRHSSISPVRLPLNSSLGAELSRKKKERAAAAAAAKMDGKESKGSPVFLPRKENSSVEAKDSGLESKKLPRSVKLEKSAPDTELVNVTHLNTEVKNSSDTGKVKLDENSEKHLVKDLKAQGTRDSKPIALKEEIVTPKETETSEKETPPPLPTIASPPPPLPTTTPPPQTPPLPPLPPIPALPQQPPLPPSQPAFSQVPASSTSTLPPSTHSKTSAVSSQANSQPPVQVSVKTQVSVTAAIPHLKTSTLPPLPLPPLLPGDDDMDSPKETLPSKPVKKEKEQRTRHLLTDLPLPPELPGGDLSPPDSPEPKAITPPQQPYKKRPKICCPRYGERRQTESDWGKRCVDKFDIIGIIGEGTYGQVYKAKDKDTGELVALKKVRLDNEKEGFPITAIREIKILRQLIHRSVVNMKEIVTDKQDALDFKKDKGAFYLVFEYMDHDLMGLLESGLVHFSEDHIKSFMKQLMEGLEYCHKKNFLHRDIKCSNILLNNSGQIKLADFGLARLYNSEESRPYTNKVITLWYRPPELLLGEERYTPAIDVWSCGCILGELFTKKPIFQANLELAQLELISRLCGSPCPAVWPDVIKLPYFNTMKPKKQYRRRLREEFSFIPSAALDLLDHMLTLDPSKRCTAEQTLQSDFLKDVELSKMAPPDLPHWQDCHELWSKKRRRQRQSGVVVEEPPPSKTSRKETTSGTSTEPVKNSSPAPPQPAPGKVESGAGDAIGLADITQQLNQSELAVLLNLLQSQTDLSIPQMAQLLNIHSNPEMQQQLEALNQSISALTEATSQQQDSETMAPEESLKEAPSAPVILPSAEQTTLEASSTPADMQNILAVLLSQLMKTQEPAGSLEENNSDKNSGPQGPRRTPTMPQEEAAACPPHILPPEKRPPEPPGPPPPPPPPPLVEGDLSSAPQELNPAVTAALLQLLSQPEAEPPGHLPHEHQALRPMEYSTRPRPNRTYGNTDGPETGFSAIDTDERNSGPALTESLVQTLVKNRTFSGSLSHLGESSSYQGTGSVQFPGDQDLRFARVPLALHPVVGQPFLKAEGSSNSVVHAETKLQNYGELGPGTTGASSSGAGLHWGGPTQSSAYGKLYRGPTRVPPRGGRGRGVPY
CDK12, sequence (O75909 whole entry partner): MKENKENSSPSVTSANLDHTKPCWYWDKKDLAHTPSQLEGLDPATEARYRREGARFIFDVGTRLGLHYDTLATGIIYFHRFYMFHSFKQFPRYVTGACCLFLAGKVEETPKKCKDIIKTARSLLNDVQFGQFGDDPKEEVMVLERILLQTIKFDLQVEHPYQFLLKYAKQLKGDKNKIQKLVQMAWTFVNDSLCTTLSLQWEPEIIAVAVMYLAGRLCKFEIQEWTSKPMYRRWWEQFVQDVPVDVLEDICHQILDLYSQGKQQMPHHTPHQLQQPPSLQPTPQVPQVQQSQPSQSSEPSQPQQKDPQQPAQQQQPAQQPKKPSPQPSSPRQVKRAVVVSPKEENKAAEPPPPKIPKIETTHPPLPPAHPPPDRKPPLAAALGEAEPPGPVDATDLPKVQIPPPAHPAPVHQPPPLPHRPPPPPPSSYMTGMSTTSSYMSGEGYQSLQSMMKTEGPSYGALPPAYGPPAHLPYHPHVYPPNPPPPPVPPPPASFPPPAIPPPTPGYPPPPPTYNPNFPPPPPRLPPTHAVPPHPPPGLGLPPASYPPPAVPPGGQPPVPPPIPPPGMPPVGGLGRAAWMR
Protocol: as §1, §2, §3, §4, §5, §6, §7, §8, §9

CDK13, sequence (Q14004 whole entry): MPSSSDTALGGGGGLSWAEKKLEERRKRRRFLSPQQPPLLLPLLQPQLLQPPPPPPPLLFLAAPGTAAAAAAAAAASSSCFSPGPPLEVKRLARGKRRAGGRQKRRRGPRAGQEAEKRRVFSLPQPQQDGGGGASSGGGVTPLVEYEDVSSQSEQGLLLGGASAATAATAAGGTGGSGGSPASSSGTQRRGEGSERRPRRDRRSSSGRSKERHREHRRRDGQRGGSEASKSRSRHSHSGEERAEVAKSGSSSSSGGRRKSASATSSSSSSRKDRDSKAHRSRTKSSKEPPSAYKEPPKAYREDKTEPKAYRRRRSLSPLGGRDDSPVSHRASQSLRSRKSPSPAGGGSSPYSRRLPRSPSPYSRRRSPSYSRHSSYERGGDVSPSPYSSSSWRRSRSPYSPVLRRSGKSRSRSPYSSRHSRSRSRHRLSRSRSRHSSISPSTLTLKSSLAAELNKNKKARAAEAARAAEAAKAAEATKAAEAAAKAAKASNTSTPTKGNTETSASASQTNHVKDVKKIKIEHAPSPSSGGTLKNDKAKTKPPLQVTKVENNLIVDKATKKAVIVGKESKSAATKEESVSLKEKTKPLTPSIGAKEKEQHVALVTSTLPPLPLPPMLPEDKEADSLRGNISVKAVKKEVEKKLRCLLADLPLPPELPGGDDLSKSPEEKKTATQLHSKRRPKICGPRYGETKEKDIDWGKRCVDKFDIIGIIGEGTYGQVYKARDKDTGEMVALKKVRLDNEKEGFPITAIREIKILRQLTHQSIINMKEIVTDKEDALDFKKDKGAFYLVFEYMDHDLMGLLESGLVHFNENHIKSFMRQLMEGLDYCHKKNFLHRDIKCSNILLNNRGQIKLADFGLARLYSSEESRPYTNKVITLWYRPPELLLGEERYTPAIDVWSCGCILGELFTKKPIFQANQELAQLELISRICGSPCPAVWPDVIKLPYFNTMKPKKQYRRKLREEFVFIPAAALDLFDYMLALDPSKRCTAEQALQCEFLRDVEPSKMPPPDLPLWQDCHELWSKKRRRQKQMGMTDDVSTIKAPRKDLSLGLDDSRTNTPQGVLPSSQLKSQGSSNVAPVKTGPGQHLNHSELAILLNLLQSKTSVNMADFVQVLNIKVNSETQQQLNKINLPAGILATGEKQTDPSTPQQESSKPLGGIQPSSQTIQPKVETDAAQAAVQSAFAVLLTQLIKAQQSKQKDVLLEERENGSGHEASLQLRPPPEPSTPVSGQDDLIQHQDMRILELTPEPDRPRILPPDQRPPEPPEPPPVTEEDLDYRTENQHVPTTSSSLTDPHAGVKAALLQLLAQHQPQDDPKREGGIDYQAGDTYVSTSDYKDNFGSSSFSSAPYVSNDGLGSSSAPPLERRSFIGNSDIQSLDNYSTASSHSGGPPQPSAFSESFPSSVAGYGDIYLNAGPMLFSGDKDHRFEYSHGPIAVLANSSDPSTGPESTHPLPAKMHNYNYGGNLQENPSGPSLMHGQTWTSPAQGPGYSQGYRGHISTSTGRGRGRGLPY
CDK13, sequence (O75909 whole entry partner): as the sequence (O75909 whole entry partner) above

CDK13 degradation Activity (CDK13) | CDK12 degradation Activity (CDK12) | DC50 (CDK13) | DC50 (CDK12) | SMILES
− | − |  |  | Cc1ncsc1-c1ccc([C@H](C)NC(=O)[C@@H]2C[C@@H](O)CN2C(=O)[C@@H](NC(=O)Cn2cc(-c3ccc(N(C(=O)NCc4ccccc4)[C@H]4CC[C@H](Nc5ncc(C#N)cn5)CC4)cc3)ccc2=O)C(C)(C)C)cc1 [Formula 61]
 |  | 3000 to 10000 nM | 1000 to 3000 nM | N#Cc1ccc(N[C@H]2CC[C@H](N(C(=O)NCc3ccccc3)c3ccc(N4CCN(CCOCCOCCNc5cccc6c5C(=O)N(C5CCC(=O)NC5=O)C6=O)CC4)cc3)CC2)nc1 (stereo partly drawn) [Formula 39]
− | − |  |  | Cc1ncsc1-c1ccc([C@H](C)NC(=O)[C@@H]2C[C@@H](O)CN2C(=O)[C@@H](NC(=O)COCCOCCn2cc(-c3ccc(N(C(=O)NCc4ccccc4)[C@H]4CC[C@H](Nc5ccc(C#N)cn5)CC4)cc3)ccc2=O)C(C)(C)C)cc1 [Formula 57]
 |  | 500 to 1000 nM | 500 to 1000 nM | Cc1ncsc1-c1ccc([C@H](C)NC(=O)[C@@H]2C[C@@H](O)CN2C(=O)[C@@H](NC(=O)COCCOCCN2CCN(c3ccc(N(C(=O)NCc4ccccc4)[C@H]4CC[C@H](Nc5ccc(C#N)cn5)CC4)cc3)CC2)C(C)(C)C)cc1 [Formula 8]
− |  |  | 3000 to 10000 nM | N#Cc1ccc(N[C@H]2CC[C@H](N(C(=O)NCc3ccccc3)c3ccc(-c4ccc(=O)n(CCOCCOCCOCCNc5cccc6c5C(=O)N(C5CCC(=O)NC5=O)C6=O)c4)cc3)CC2)nc1 (stereo partly drawn) [Formula 48]
 |  | 500 to 1000 nM | 1000 to 3000 nM | Cc1ncsc1-c1ccc([C@H](C)NC(=O)[C@@H]2C[C@@H](O)CN2C(=O)[C@@H](NC(=O)COCCOCCOCCOCCOCCn2cc(-c3ccc(N(C(=O)NCc4ccccc4)[C@H]4CC[C@H](Nc5ccc(C#N)cn5)CC4)cc3)ccc2=O)C(C)(C)C)cc1 [Formula 60]
 |  | 100 to 500 nM | 100 to 500 nM | Cc1ncsc1-c1ccc([C@H](C)NC(=O)[C@@H]2C[C@@H](O)CN2C(=O)[C@@H](NC(=O)COCCOc2ccc(-c3ccc(N(C(=O)NCc4ccccc4)[C@H]4CC[C@H](Nc5ccc(C#N)cn5)CC4)cc3)cn2)C(C)(C)C)cc1 [Formula 1]
− | − |  |  | Cc1ncsc1-c1ccc([C@H](C)NC(=O)[C@@H]2C[C@@H](O)CN2C(=O)[C@@H](NC(=O)CC#CC2CCN(c3ccc(-c4ccc(N(C(=O)NCc5ccccc5)[C@H]5CC[C@H](Nc6ccc(C#N)cn6)CC5)cc4)cn3)CC2)C(C)(C)C)cc1 [Formula 19]
 |  | 100 to 500 nM | 500 to 1000 nM | CCNC(=O)N(c1ccc(-c2ccc(N3CCN(CC(=O)N[C@H](C(=O)N4C[C@H](O)C[C@H]4C(=O)N[C@@H](C)c4ccc(-c5scnc5C)cc4)C(C)(C)C)CC3)nc2)cc1)[C@H]1CC[C@H](Nc2ccc(C#N)cn2)CC1 [Formula 44]
 |  | < 100 nM | < 100 nM | Cc1ncsc1-c1ccc([C@H](C)NC(=O)[C@@H]2C[C@@H](O)CN2C(=O)[C@@H](NC(=O)CN2CCN(c3ccc(-c4ccc5c(c4)CCCN(Cc4ccccc4)C(=O)N5[C@H]4CC[C@H](Nc5ccc(C#N)cn5)CC4)cn3)CC2)C(C)(C)C)cc1 [Formula 70]
 |  | 500 to 1000 nM | 1000 to 3000 nM | Cc1ncsc1-c1ccc([C@H](C)NC(=O)[C@@H]2C[C@@H](O)CN2C(=O)[C@@H](NC(=O)C2CCN(c3ccc(-c4ccc(N(C(=O)NCc5ccccc5)[C@H]5CC[C@H](Nc6ccc(C#N)cn6)CC5)cc4)cn3)CC2)C(C)(C)C)cc1 [Formula 17]
 |  | 3000 to 10000 nM | 3000 to 10000 nM | Cc1ncsc1-c1ccc([C@H](C)NC(=O)[C@@H]2C[C@@H](O)CN2C(=O)[C@@H](NC(=O)CC#CCOc2ccc(-c3ccc(N(C(=O)NCc4ccccc4)[C@H]4CC[C@H](Nc5ccc(C#N)cn5)CC4)cc3)cn2)C(C)(C)C)cc1 [Formula 16]
− | − |  |  | Cc1ncsc1-c1ccc([C@H](C)NC(=O)[C@@H]2C[C@@H](O)CN2C(=O)[C@@H](NC(=O)N2CC3(CCN(c4ccc(N(C(=O)NCc5ccccc5)[C@H]5CC[C@H](Nc6ccc(C#N)cn6)CC5)cc4)CC3)C2)C(C)(C)C)cc1 [Formula 55]
 |  | 500 to 1000 nM | 1000 to 3000 nM | Cc1ncsc1-c1ccc([C@H](C)NC(=O)[C@@H]2C[C@@H](O)CN2C(=O)[C@@H](NC(=O)COc2ccc(-c3ccc(N(C(=O)NCc4ccccc4)[C@H]4CC[C@H](Nc5ccc(C#N)cn5)CC4)cc3)cn2)C(C)(C)C)cc1 [Formula 6]
 |  | 1000 to 3000 nM | 1000 to 3000 nM | N#Cc1ccc(N[C@H]2CC[C@H](N(C(=O)NCc3ccccc3)c3ccc(N4CCN(CCOCCOCCOCCOCCNc5cccc6c5C(=O)N(C5CCC(=O)NC5=O)C6=O)CC4)cc3)CC2)nc1 (stereo partly drawn) [Formula 41]
 |  | 1000 to 3000 nM | 500 to 1000 nM | N#Cc1ccc(N[C@H]2CC[C@H](N(C(=O)NCc3ccccc3)c3ccc(N4CCN(CCOCCOCCOCCNc5cccc6c5C(=O)N(C5CCC(=O)NC5=O)C6=O)CC4)cc3)CC2)nc1 (stereo partly drawn) [Formula 40]
 |  | 100 to 500 nM | 500 to 1000 nM | Cc1ncsc1-c1ccc([C@H](C)NC(=O)[C@@H]2C[C@@H](O)CN2C(=O)[C@@H](NC(=O)CN2CCC(Oc3ccc(-c4ccc(N(C(=O)NCc5ccccc5)[C@H]5CC[C@H](Nc6ccc(C#N)cn6)CC5)cc4)cn3)CC2)C(C)(C)C)cc1 [Formula 11]
 |  | 3000 to 10000 nM | 3000 to 10000 nM | Cc1ncsc1-c1ccc([C@H](C)NC(=O)[C@@H]2C[C@@H](O)CN2C(=O)[C@@H](NC(=O)C2CC3(CC(Nc4ccc(-c5ccc(N(C(=O)NCc6ccccc6)[C@H]6CC[C@H](Nc7ccc(C#N)cn7)CC6)cc5)cn4)C3)C2)C(C)(C)C)cc1 (stereo partly drawn) [Formula 28]
− | − |  |  | Cc1ncsc1-c1ccc([C@H](C)NC(=O)[C@@H]2C[C@@H](O)CN2C(=O)[C@@H](NC(=O)C2CCN(C(=O)C3CCN(c4ccc(N(C(=O)NCc5ccccc5)[C@H]5CC[C@H](Nc6ccc(C#N)cn6)CC5)cc4)CC3)CC2)C(C)(C)C)cc1 [Formula 22]
 |  | 500 to 1000 nM | 1000 to 3000 nM | N#Cc1ccc(N[C@H]2CC[C@H](N(C(=O)NCc3ccccc3)c3ccc(-c4ccc(OCCNc5cccc6c5C(=O)N(C5CCC(=O)NC5=O)C6=O)nc4)cc3)CC2)nc1 (stereo partly drawn) [Formula 37]
 |  | 100 to 500 nM | 500 to 1000 nM | Cc1ncsc1-c1ccc([C@H](C)NC(=O)[C@@H]2C[C@@H](O)CN2C(=O)[C@@H](NC(=O)CN2CCN(c3ccc(-c4ccc5c(c4)CCN(Cc4ccccc4)C(=O)N5[C@H]4CC[C@H](Nc5ccc(C#N)cn5)CC4)cn3)CC2)C(C)(C)C)cc1 [Formula 69]
 |  | 1000 to 3000 nM | 3000 to 10000 nM | Cc1ncsc1-c1ccc([C@H](C)NC(=O)[C@@H]2C[C@@H](O)CN2C(=O)[C@@H](NC(=O)N2CCN(c3ccc(N(C(=O)NCc4ccccc4)[C@H]4CC[C@H](Nc5ncc6ccccc6n5)CC4)cc3)CC2)C(C)(C)C)cc1 [Formula 53]
− |  |  | 3000 to 10000 nM | Cc1ncsc1-c1ccc([C@H](C)NC(=O)[C@@H]2C[C@@H](O)CN2C(=O)[C@@H](NC(=O)N2CCC3(CC2)CCN(c2ccc(N(C(=O)NCc4ccccc4)[C@H]4CC[C@H](Nc5ccc(C#N)cn5)CC4)cn2)CC3)C(C)(C)C)cc1 [Formula 52]
 |  | 500 to 1000 nM | 500 to 1000 nM | Cc1ncsc1-c1ccc([C@H](C)NC(=O)[C@@H]2C[C@@H](O)CN2C(=O)[C@@H](NC(=O)COCCOc2ccc(-c3ccc4c(c3)CN(Cc3ccccc3)C(=O)N4[C@H]3CC[C@H](Nc4ccc(C#N)cn4)CC3)cn2)C(C)(C)C)cc1 [Formula 62]

SMILES | CDK13 degradation Activity (CDK13) | CDK12 degradation Activity (CDK12) | DC50 (CDK13) | DC50 (CDK12)
Cc1ncsc1-c1ccc([C@H](C)NC(=O)[C@@H]2C[C@@H](O)CN2C(=O)[C@@H](NC(=O)CN2CCN(c3ncc(-c4ccc(N(C(=O)NCc5ccccc5)[C@H]5CC[C@H](Nc6ccc(C#N)cn6)CC5)cc4)cn3)CC2)C(C)(C)C)cc1 [Formula 86] |  |  | < 100 nM | < 100 nM
Cc1ncsc1-c1ccc([C@H](C)NC(=O)[C@@H]2C[C@@H](O)CN2C(=O)[C@@H](NC(=O)CN2CCN(c3ncc(-c4ccc(N(C(=O)NCc5ccccc5)[C@H]5CC[C@H](Nc6ccc(C#N)cn6)CC5)cc4)cn3)CC2)C(C)(C)C)cc1 [Formula 85] |  |  | < 100 nM | < 100 nM
Cc1ncsc1-c1ccc([C@H](C)NC(=O)[C@@H]2C[C@@H](O)CN2C(=O)[C@@H](NC(=O)CN2CCN(c3ccc(-c4ccc(N(C(=O)NCc5ccccc5)[C@H]5CC[C@H](Nc6ccc(C#N)cn6)CC5)cc4)cn3)CC2)C(C)(C)C)cc1 (racemic) [Formula 73] |  |  | < 100 nM | < 100 nM

— US20260327204A1, “DEGRADERS OF CYCLIN-DEPENDENT KINASE 12/13, COMPOSITIONS, AND USES THEREOF” (ZHEJIANG UNIVERSITY, priority 2023, published 2026)
